Assay results from BigSolDB 2.1.

O=C(O)COc1ccc(Cl)cc1Cl
solubility (mole fraction)
Conditions | 278.15 K | 283.15 K | 288.15 K | 293.15 K | 298.15 K | 303.15 K | 308.15 K | 313.15 K | 318.15 K | 323.15 K
in isobutyl acetate | – | – | – | – | – | 0.0747 | 0.0846 | 0.0958 | 0.11 | 0.128
in isopropanol | 0.0424 | 0.0525 | 0.0646 | 0.0783 | 0.0942 | 0.113 | 0.132 | 0.153 | 0.176 | 0.201
in methyl acetate | 0.0602 | 0.0685 | 0.0761 | 0.0846 | 0.0976 | 0.106 | 0.119 | 0.131 | 0.144 | 0.16
in n-butanol | 0.0521 | 0.0644 | 0.079 | 0.0986 | 0.127 | 0.146 | 0.17 | 0.198 | 0.231 | 0.27
in n-butyl acetate | 0.0486 | 0.0535 | 0.0604 | 0.0678 | 0.0749 | 0.0832 | 0.0931 | 0.106 | 0.12 | 0.136
in n-pentanol | 0.0537 | 0.0701 | 0.0866 | 0.107 | 0.131 | 0.155 | 0.182 | 0.211 | 0.243 | 0.281
in n-propanol | 0.0486 | 0.0602 | 0.0731 | 0.0911 | 0.11 | 0.131 | 0.152 | 0.179 | 0.207 | 0.236
in sec-butanol | 0.043 | 0.0535 | 0.0665 | 0.0809 | 0.098 | 0.117 | 0.139 | 0.162 | 0.186 | 0.213
